# According to PubChem BioAssay AID1963829 (Molecular Pharmacology Branch, DTP, NCI, 2024):
# System: 935938-334-R-J1-PDC complex spheroid viability
# Assay: Anticancer human tumor 935938-334-R-J1-PDC patient-derived small intestine adenocarcinoma cell line growth inhibition [POLQ]
# Details: for IC50: curve of first compound; for viability, T/C: stronger effect = lower value
# How it was run: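 PDC + HUVEC + MSC complex spheroids; POLQ inhibitors ± partner drugs; top conc. at/near clinical Cmax, else 10 microM (SN-38 1 microM), half-log dilutions; 37 degrees C, 5% CO2.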
# 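Also: spheroids exposed to drugs for seven days before viability read.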
# 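For viability, T/C in this document: 100% = DMSO vehicle control wells.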
structure (smiles),measurement,setting,value
CC1COCCN1c1cc(C2(O)CC3CCC(C2)O3)c2cnn(-c3ccn[nH]3)c2n1 (configuration not stated) + Cc1cccc(N(C)C(=O)C2C(O)CCN2c2nc(C)cc(C(F)(F)F)c2C#N)c1,IC50,second compound 0.0316 µM,372 nM
same,IC50,second compound 0.1 µM,262 nM
same,IC50,second compound 0.316 µM,331 nM
same,IC50,second compound 1 µM,215 nM
same,IC50,second compound 3.16 µM,198 nM
same,IC50,second compound 10 µM,155 nM
same,"viability, T/C","second compound 0.0316 µM, first compound 0.0316 µM",84%
same,"viability, T/C","second compound 0.0316 µM, first compound 0.1 µM",76.2%
same,"viability, T/C","second compound 0.0316 µM, first compound 0.316 µM",52.9%
same,"viability, T/C","second compound 0.0316 µM, first compound 1 µM",29.1%
same,"viability, T/C","second compound 0.0316 µM, first compound 3.16 µM",18.7%
same,"viability, T/C","second compound 0.0316 µM, first compound 10 µM",13.8%
same,"viability, T/C","second compound 0.1 µM, first compound 0.0316 µM",101%
same,"viability, T/C","second compound 0.1 µM, first compound 0.1 µM",90.3%
same,"viability, T/C","second compound 0.1 µM, first compound 0.316 µM",40.1%
same,"viability, T/C","second compound 0.1 µM, first compound 1 µM",25.8%
same,"viability, T/C","second compound 0.1 µM, first compound 3.16 µM",17.7%
same,"viability, T/C","second compound 0.1 µM, first compound 10 µM",9.91%
same,"viability, T/C","second compound 0.316 µM, first compound 0.0316 µM",66.2%
same,"viability, T/C","second compound 0.316 µM, first compound 0.1 µM",92.2%
same,"viability, T/C","second compound 0.316 µM, first compound 0.316 µM",51.3%
same,"viability, T/C","second compound 0.316 µM, first compound 1 µM",24.8%
same,"viability, T/C","second compound 0.316 µM, first compound 3.16 µM",18%
same,"viability, T/C","second compound 0.316 µM, first compound 10 µM",13.3%
same,"viability, T/C","second compound 1 µM, first compound 0.0316 µM",77.7%
same,"viability, T/C","second compound 1 µM, first compound 0.1 µM",74.5%
same,"viability, T/C","second compound 1 µM, first compound 0.316 µM",37%
same,"viability, T/C","second compound 1 µM, first compound 1 µM",25.3%
same,"viability, T/C","second compound 1 µM, first compound 3.16 µM",18.9%
same,"viability, T/C","second compound 1 µM, first compound 10 µM",12.5%
same,"viability, T/C","second compound 3.16 µM, first compound 0.0316 µM",90.6%
same,"viability, T/C","second compound 3.16 µM, first compound 0.1 µM",64.5%
same,"viability, T/C","second compound 3.16 µM, first compound 0.316 µM",40.2%
same,"viability, T/C","second compound 3.16 µM, first compound 1 µM",23.9%
same,"viability, T/C","second compound 3.16 µM, first compound 3.16 µM",20.6%
same,"viability, T/C","second compound 3.16 µM, first compound 10 µM",12.3%
same,"viability, T/C","second compound 10 µM, first compound 0.0316 µM",70.3%
same,"viability, T/C","second compound 10 µM, first compound 0.1 µM",56.8%
same,"viability, T/C","second compound 10 µM, first compound 0.316 µM",39.6%
same,"viability, T/C","second compound 10 µM, first compound 1 µM",23.2%
same,"viability, T/C","second compound 10 µM, first compound 3.16 µM",17.2%
same,"viability, T/C","second compound 10 µM, first compound 10 µM",9.31%
